According to patent US6610471B1, “Methods and compositions to investigate infection by hepatitis B virus and agents to prevent and treat the infection” (priority 1998, dated 2003):

Tested on: HBV
Test: Non protein-associated RC and CCC HBV DNA in HBV baculovirus infected HepG2 cells (Southern blot)
Type: cell-based, hepatitis B virus
Details: for non protein-associated RC HBV DNA, % Untreated Control: 50 pfu/cell
Description: On the indicated days (3, 6, and 9 days of drug treatment) HBV replication in HepG2 cultures was assessed by examining extracellular HBV DNA and intracellular replicative intermediates.
(T). […] Relaxed circular (RC) and covalently closed circular (CCC) HBV DNA is indicated. […] A conclusion from these studies is that the HBV baculovirus-HepG2 system can be used to complement other in vitro model systems currently used for testing antiviral compounds.
HepG2 cells were seeded at approximately 20% to 40% confluency and then were grown for 16 to 24 hours before infection. On the day of infection, duplicate plates of cells were trypsinized, and viable cell number was determined with a hemocytometer using Trypan blue exclusion. Average cell counts were calculated and used to determine the volume of high-titer viral stock necessary to infect cells at the indicated moi. Baculovirus was diluted into MEM-FBS to achieve the appropriate moi using volumes of 1.0 and 0.25 mL to infect 100-mm and 35-mm dishes, respectively. Baculovirus was adsorbed to HepG2 cells for one hour at 37° C. with gentle rocking every 15 minutes to ensure that the inoculum was evenly distributed. The inoculum was then aspirated and HepG2 cells were washed two times with phosphate-buffered saline and refed MEM-FBS.
Nonprotein-bound circular HBV genomes were extracted from HepG2 cells after infection by a high salt extraction of low molecular weight DNA followed by a phenol and chloroform extraction. Nucleic acids were resuspended in 50 μL of water and normalized by OD260. All samples were treated with 100 μg/mL RNase and 30 U of Plasmid-Safe ATP-Dependent DNase (Epicenter Technologies, Madison, Wis.). After a two-hour incubation at 37° C., Plasmid-Safe DNase was heat inactivated at 65° C. according to the manufacturer's instructions. Each sample was separated into two aliquots and one aliquot was digested with Xhol for one hour at 37° C. Samples were analyzed by electrophoresis and Southern blotting.
3TC was a gift of BioChem Therapeutic Inc. (Laval, Quebec, Canada). […] Medium containing 3TC was prepared daily as needed using fresh aliquots of 3TC.

Nc1ccn([C@@H]2CS[C@H](CO)O2)c(=O)n1 [3TC, (−)-2′-dideoxy-3′-thiacytidine]
non protein-associated RC HBV DNA, % Untreated Control (0.02 μM 3TC, P (from 16 h prior to infection), day 4 p.i. (3 days treatment)): 60.9 % Untreated Control
non protein-associated RC HBV DNA, % Untreated Control (0.02 μM 3TC, P (from 16 h prior to infection), day 7 p.i. (6 days treatment)): 45.2 % Untreated Control
non protein-associated RC HBV DNA, % Untreated Control (0.02 μM 3TC, T (from 24 h p.i.), day 4 p.i. (3 days treatment)): 48.8 % Untreated Control
non protein-associated RC HBV DNA, % Untreated Control (0.02 μM 3TC, T (from 24 h p.i.), day 7 p.i. (6 days treatment)): 40.2 % Untreated Control
non protein-associated RC HBV DNA, % Untreated Control (0.2 μM 3TC, P (from 16 h prior to infection), day 4 p.i. (3 days treatment)): 8.6 % Untreated Control
non protein-associated RC HBV DNA, % Untreated Control (0.2 μM 3TC, P (from 16 h prior to infection), day 7 p.i. (6 days treatment)): 10.5 % Untreated Control
non protein-associated RC HBV DNA, % Untreated Control (0.2 μM 3TC, T (from 24 h p.i.), day 4 p.i. (3 days treatment)): 17.3 % Untreated Control
non protein-associated RC HBV DNA, % Untreated Control (0.2 μM 3TC, T (from 24 h p.i.), day 7 p.i. (6 days treatment)): 10.9 % Untreated Control
non protein-associated RC HBV DNA, % Untreated Control (2.0 μM 3TC, P (from 16 h prior to infection), day 4 p.i. (3 days treatment)): 3.2 % Untreated Control
non protein-associated RC HBV DNA, % Untreated Control (2.0 μM 3TC, P (from 16 h prior to infection), day 7 p.i. (6 days treatment)): 5.6 % Untreated Control
non protein-associated RC HBV DNA, % Untreated Control (2.0 μM 3TC, T (from 24 h p.i.), day 4 p.i. (3 days treatment)): 6.8 % Untreated Control
non protein-associated RC HBV DNA, % Untreated Control (2.0 μM 3TC, T (from 24 h p.i.), day 7 p.i. (6 days treatment)): 6.7 % Untreated Control
inhibition at 2 µM (Hepatitis B virus, HepG2, read-out: inhibition of non protein-associated RC HBV DNA production): > 90%
